Source: ChEMBL document CHEMBL1141452, “Advances in development of dopaminergic aporphinoids” (J Med Chem, 2007)

Columns and labels:
[1] = molecular target: D(2) dopamine receptor (Rattus norvegicus, UniProt P61169); experiment: Displacement of [3H]raclopride from rat dopamine D2 receptor
[2] = molecular target: D(1A) dopamine receptor (Rattus norvegicus, UniProt P18901); experiment: Displacement of [3H]SCH-23390 from rat dopamine D1 receptor
[3] = molecular target: 5-hydroxytryptamine receptor 7 (Rattus norvegicus) (UniProt P32305); experiment: Displacement of [3H]5-HT from rat 5-HT7 receptor
[4] = molecular target: T1, 5-hydroxytryptamine receptor 1A (Rattus norvegicus, UniProt P19327); experiment: Displacement of [3H]8-OH-DPAT from rat 5HT1A receptor
T1 sequence (P19327 whole entry): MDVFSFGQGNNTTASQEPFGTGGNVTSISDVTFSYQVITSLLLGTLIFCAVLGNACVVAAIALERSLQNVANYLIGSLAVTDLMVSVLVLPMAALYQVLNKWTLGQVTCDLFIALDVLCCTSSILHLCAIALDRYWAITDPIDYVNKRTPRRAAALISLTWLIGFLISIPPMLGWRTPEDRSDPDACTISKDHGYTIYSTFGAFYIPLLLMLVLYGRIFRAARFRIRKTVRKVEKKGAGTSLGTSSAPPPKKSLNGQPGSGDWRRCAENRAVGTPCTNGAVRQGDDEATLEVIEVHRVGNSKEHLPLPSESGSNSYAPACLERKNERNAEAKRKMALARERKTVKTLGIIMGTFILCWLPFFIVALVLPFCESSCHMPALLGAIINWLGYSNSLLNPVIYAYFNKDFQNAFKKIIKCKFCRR

Sequence of 5-hydroxytryptamine receptor 7 (Rattus norvegicus) (P32305 whole entry, looked up): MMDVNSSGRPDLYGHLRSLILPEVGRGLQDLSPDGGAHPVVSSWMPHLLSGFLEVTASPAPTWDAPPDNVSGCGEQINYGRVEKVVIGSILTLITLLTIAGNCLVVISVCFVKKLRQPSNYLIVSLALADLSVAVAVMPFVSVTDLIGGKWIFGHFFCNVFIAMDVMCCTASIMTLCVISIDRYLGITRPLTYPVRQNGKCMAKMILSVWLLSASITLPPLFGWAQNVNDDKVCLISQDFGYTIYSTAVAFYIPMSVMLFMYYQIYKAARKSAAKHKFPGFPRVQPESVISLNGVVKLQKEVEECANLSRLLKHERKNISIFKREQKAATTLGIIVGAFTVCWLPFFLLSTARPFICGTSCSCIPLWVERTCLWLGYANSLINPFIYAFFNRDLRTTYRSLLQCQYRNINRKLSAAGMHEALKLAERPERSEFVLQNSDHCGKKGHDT
Sequence of D(1A) dopamine receptor (P18901 whole entry): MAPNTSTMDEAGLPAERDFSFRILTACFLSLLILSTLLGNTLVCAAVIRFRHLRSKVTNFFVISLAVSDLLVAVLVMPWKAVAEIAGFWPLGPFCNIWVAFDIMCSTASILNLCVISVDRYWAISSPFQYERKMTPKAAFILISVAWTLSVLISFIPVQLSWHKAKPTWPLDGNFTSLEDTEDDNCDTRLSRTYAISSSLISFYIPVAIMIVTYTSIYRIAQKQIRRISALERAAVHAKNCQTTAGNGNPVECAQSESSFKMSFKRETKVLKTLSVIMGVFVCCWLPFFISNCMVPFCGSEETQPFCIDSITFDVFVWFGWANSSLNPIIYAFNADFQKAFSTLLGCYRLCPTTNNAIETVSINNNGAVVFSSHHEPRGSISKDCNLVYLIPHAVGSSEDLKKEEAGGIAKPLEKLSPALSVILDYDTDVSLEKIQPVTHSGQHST
Sequence of D(2) dopamine receptor (P61169 whole entry): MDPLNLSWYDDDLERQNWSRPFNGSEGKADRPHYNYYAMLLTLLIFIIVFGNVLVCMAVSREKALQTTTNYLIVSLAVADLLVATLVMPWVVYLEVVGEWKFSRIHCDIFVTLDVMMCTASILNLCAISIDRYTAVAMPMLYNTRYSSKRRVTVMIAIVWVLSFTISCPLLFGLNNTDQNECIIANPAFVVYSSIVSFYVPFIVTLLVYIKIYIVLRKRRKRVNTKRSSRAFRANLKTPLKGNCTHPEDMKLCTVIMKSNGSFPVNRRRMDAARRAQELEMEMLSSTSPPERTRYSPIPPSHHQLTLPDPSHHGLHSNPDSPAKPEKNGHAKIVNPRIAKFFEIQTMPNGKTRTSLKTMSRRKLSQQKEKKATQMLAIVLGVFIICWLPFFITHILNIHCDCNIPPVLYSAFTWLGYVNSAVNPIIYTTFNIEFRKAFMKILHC

SMILES | Ki [1] [nM] | Ki [2] [nM] | also measured
CCCN1CCc2cc(O)c(O)c3c2C1Cc1ccccc1C3 (stereo unspecified) | 6700 | 22300 | 
CCCN1CCc2cc(O)cc3c2C1Cc1ccccc1O3 (stereo unspecified) | > 10000 | > 10000 | 
Oc1ccc2c(c1)C[C@H]1NCCc3cc4c(c-2c31)OCO4 [ANOLOBINE] |  |  | IC50 [1]: 15000 nM; IC50 [2]: 36000 nM
CCCN1CCc2cccc3c2[C@H]1Cc1ccc(C)c(O)c1-3 | 250 | 2000 | 
COc1ccc2c(c1O)Oc1c(OC)ccc3c1[C@H](C2)N(C)CC3 [SARCOCAPNIDINE] |  |  | IC50 [1]: 2000 nM; IC50 [2]: 50000 nM
COc1cc2c(cc1OC)-c1c(OC)c(O)cc3c1[C@H](C2)N(C)CC3 [PREDICENTRINE] | 760 | 240 | 
Cc1ccc2c(c1O)-c1cccc3c1[C@@H](C2)NCC3 | > 10000 | > 20000 | 
CCCN1CCc2cc(O)cc3c2C1Cc1ccccc1C3 (stereo unspecified) | 40000 | 30000 | 
COc1c(O)c2c3c(c1OC)CCN[C@@H]3Cc1ccccc1-2 [ISOPILINE] |  |  | IC50 [1]: 30000 nM; IC50 [2]: 9800 nM
C[C@@H]1c2cccc3c2-c2c1ccc1c2[C@@H](C3)N(C)CC1 | 19 |  | Ki [3]: 3.3 nM; Ki [4]: 5.1 nM
CN1CCc2ccc3oc(=O)c4cccc5c4c3c2[C@H]1C5 | 540 |  | Ki [3]: 280 nM; Ki [4]: 1150 nM
CC(=O)N[C@@H]1c2cccc3c2-c2c1ccc1c2[C@@H](C3)N(C)CC1 | 3600 |  | Ki [3]: 540 nM; Ki [4]: 200 nM
COc1cc2c3c(c1OC)Cc1ccccc1CC3N(Cc1ccccc1)CC2 (stereo unspecified) | 4900 | > 60000 | 
CN1CCc2ccc3c(=O)[nH]c4cccc5c4c3c2[C@H]1C5 | 6100 |  | Ki [3]: 340 nM; Ki [4]: 370 nM
CN1CCc2ccc3c4c2[C@H]1Cc1cccc(c1-4)[C@H]3N | 260 |  | Ki [3]: 13 nM; Ki [4]: 140 nM
CCCN1CCc2cccc3c2C1Cc1cc(O)ccc1O3 (stereo unspecified) | > 10000 | > 10000 | 
Cc1cccc(C#N)c1-c1cccc2c1-c1cccc3c1[C@@H](C2)N(C)CC3 (stereo in doubt; 58) |  |  | Ki [3]: 3.8 nM
COc1cc2c(cc1O)Oc1c(O)ccc3c1[C@H](C2)N(C)CC3 [CELTISINE] |  |  | IC50 [1]: 30 nM; IC50 [2]: 60 nM
CO[C@@]1(C)c2cccc3c2-c2c1ccc1c2[C@@H](C3)N(C)CC1 | 71 |  | Ki [3]: 1.1 nM; Ki [4]: 17 nM
CCCN1CCc2cc(OC)cc3c2C1Cc1ccccc1C3 (stereo unspecified) | 14000 | 11600 | 
Oc1cccc2c1-c1cccc3c1[C@@H](C2)NCC3 | 1000 |  | 
CCN1CCc2cc(O)c(O)c3c2C1Cc1ccccc1C3 (stereo unspecified) | 16000 | 8300 | 

SMILES | Ki [1] [nM] | Ki [2] [nM] | also measured
CC(=O)N[C@H]1c2cccc3c2-c2c1ccc1c2[C@@H](C3)N(C)CC1 | 8000 |  | Ki [3]: 1320 nM; Ki [4]: 720 nM
CCCN1CCc2cc(O)cc3c2[C@H]1Cc1ccc(O)c(O)c1-3 |  |  | IC50 [1]: 0.07 nM
Cc1ccc2c(c1O)-c1cccc3c1[C@@H](C2)N(C)CC3 | 1070 |  | 
CN1CCc2ccc3c4c2[C@H]1Cc1cccc(c1-4)[C@@]3(C)O | 180 |  | Ki [3]: 28 nM; Ki [4]: 310 nM
CCN1CCc2cc(O)cc3c2C1Cc1ccccc1C3 (stereo unspecified) | 15000 | > 20000 | 
CCCN1CCc2cc(SC)cc3c2[C@H]1Cc1ccc(O)c(O)c1-3 | 3.7 |  | 
CCCN1CCc2cc(OC)cc3c2[C@H]1Cc1ccc(O)c(O)c1-3 |  |  | IC50 [1]: 10.2 nM
CCN1CCc2cc(OC)cc3c2C1Cc1ccccc1C3 (stereo unspecified) | 9700 | 6600 | 
CCN1CCc2cccc3c2C1Cc1cc(O)ccc1O3 (stereo unspecified) | > 10000 |  | 
COc1cc2c(cc1OC)-c1c(OC)c(OC)c(Br)c3c1[C@H](C2)N(C)CC3 | 2400 | 520 | 
O=C1c2ccccc2-c2c3c(cc4ccnc1c24)OCO3 [LIRIODENINE] |  |  | IC50 [1]: 59000 nM; IC50 [2]: 75000 nM
COc1cc2c3c(c1OC)Cc1ccccc1CC3N(C)CC2 (stereo unspecified) | > 20000 | 7200 | 
CN1CCc2ccc3c4c2[C@H]1Cc1cccc(c1-4)[C@]3(C)O | 26 |  | Ki [3]: 4.3 nM
COc1cc2c(cc1OC)-c1c(OC)c(O)c(Br)c3c1[C@H](C2)N(C)CC3 | 610 | 15 | 
CCCCC(=O)Oc1cccc2c1-c1cccc3c1[C@@H](C2)N(CCC)CC3 | 34 | > 20000 | 
COc1cc2c(cc1OC)-c1c(OC)c(O)c(I)c3c1[C@H](C2)N(C)CC3 | 830 | 6 | 
CN1CCc2cc(O)c(O)c3c2C1Cc1ccccc1C3 (stereo unspecified) | 15000 | 6100 | 
CCCN1CCc2cc(OC)c(OC)c3c2C1Cc1ccccc1C3 (stereo unspecified) | 14000 | > 70000 | 
CCc1cccc2c1-c1cccc3c1[C@@H](C2)N(C)CC3 | 79 |  | 
CN1CCc2cc(-c3ccc(O)cc3)cc3c2[C@H]1Cc1cccc(O)c1-3 | 3.8 | 170 | 
COc1cc2c(cc1O)C[C@H]1c3c(c(I)c(O)c(OC)c3-2)CCN1C | 68 | 2 | 
COc1cc2c(cc1OC)Oc1c(O)ccc3c1[C@H](C2)N(C)CC3 [CULARIDINE] |  |  | IC50 [1]: 300 nM; IC50 [2]: 800 nM

SMILES | Ki [1] [nM] | Ki [2] [nM] | also measured
COc1c2c3c(c4c1OCO4)-c1ccccc1C[C@H]3NCC2 [NORSTEPHALAGINE] |  |  | IC50 [1]: 27000 nM; IC50 [2]: 4800 nM
CN1CCc2ccc3c(=O)oc4cccc5c4c3c2[C@H]1C5 | 270 |  | Ki [3]: 1500 nM; Ki [4]: 2000 nM
CN1CCc2ccc3c4c2[C@H]1Cc1cccc(c1-4)[C@H]3O | 24 |  | Ki [3]: 14 nM
COc1cc2c3c(c1)Cc1ccccc1CC3NCC2 (stereo unspecified) | 19000 | 6300 | 
COc1cc2c3c(c1)Cc1ccccc1CC3N(C)CC2 (stereo unspecified) | 8200 | 8600 | 
COc1cc2c(cc1O)C[C@H]1c3c(c(Br)c(O)c(OC)c3-2)CCN1C [3-BROMOBOLDINE] | 740 | 49 | 
c1ccc2c(c1)C[C@H]1NCCc3cc4c(c-2c31)OCO4 [ANONAINE] |  |  | IC50 [1]: 19000 nM; IC50 [2]: 68000 nM
CO[C@]1(C)c2cccc3c2-c2c1ccc1c2[C@@H](C3)N(C)CC1 | 7 |  | Ki [3]: 1.1 nM; Ki [4]: 17 nM
CN1CCc2cc(O)cc3c2C1Cc1ccccc1O3 (stereo unspecified) | 270 | 3000 | 
COc1cc2c3c(c1OC)Cc1ccccc1CC3NCC2 (stereo unspecified) | 13000 | 4300 | 
COc1cc2c(cc1OC)-c1c(OC)c(OC)c(I)c3c1[C@H](C2)N(C)CC3 | 4500 | 2110 | 
COc1cc2c(cc1O)C[C@@H]1NCCc3cc(O)c(OC)c-2c31 [NORBOLDINE] |  |  | IC50 [1]: 6800 nM; IC50 [2]: 2500 nM
CCCCCCCCCCCCCCCCCCCCCC(=O)Oc1cccc2c1-c1cccc3c1[C@@H](C2)N(CCC)CC3 | 180 | > 10000 | 
COc1cc2c(cc1O)C[C@H]1c3c(ccc(O)c3O2)CCN1C [BREOGANINE] |  |  | IC50 [1]: 200 nM; IC50 [2]: 100 nM
CCCN1CCc2cc(F)cc3c2[C@H]1Cc1cccc(OC=O)c1-3 | 39 | 800 | 
CCCN1CCc2cccc3c2[C@H]1Cc1cccc(OC(C)=O)c1-3 |  | > 10000 | 
Oc1cc2c3c(c1O)Cc1ccccc1CC3NCC2 (stereo unspecified) | 8000 | 10800 | 
CN1CCc2ccc3c4c2[C@H]1Cc1cccc(c1-4)[C@@H]3O | 210 |  | Ki [3]: 100 nM
CN1CCc2cc(O)cc3c2C1Cc1ccccc1C3 (stereo unspecified) | 8900 | 6400 | 
Oc1cc2c3c(c1)Cc1ccccc1CC3NCC2 (stereo unspecified) | 20000 | 3700 | 
CN1CCc2ccc3c4c2[C@H]1Cc1cccc(c1-4)[C@@H]3N |  |  | Ki [3]: 18 nM; Ki [4]: 360 nM
